Data published in patent US20250114331A1, “CONCURRENT TARGETING OF ONCOGENIC PATHWAYS TO ENHANCE CHEMOTHERAPY AND IMMUNOTHERAPY” (THE JOHNS HOPKINS UNIVERSITY, priority 2021, published 2025).
“Also recorded” adds a separate entry of the source. Like-named read-outs stand apart in the source and are kept apart here.

Tests used:
[1] = system: MB49, UPPL596 and BBN 975; experiment: Cell derived xenografts treated with verteporfin; assay type: in vivo, C57BL/6 mice
Description: In vivo xenograft assay and treatment. For in vivo xenograft, cells were suspended in 100 μL of a 1:1 mixture of serum-free DMEM and Cultrex Stem Cell Qualified Reduced Growth Factor Basement Membrane Extract (Trevigen, Gaithersburg, USA), and then injected subcutaneously into the both flanks of C57BL/6 mice for MB49/UPPL595/BBN975 cells. For treatment, animals will be randomized to different treatment groups of 5 mice after growth of tumors to 100 mm3. The potential drugs are anti-PD-L1 monoclonal antibody (B7-H1, Bio X Cell, West Lebanon, USA) and verteporfin (NedKoo, Morrisville, USA). Verteporfin (50 mg/kg) will be administered via i.p. every other day. Anti-PD-L1 monoclonal antibody and the corresponding isotype antibody (200 μg/mouse) were administered via ip injection every 3 to 4 days. Treatment was performed for 14 days. To test the pharmacological inhibition of YAP1 on in vivo tumor growth in NSG and immune competent mice, CDXs were developed using three different mouse derived cancer cell lines (MB49, UPPL596 and BBN 975). Verteporfin was administered interperitoneally at a dose of 50 mg/kg body weight at every other day. […] Tumor mass values also indicate similar trend (FIG. 23C-23E; bottom).

[2] = system: MB 49, UPPL595 and BBN975; experiment: Cell proliferation, sphere formation and RT-qPCR of CSC markers in VP treated mouse UCB cell lines; assay type: cell-based; details: 1 μM
Description: Cell viability assay. Cell proliferation and viability were evaluated using alamarBlue™ Cell Viability Reagent (ThermoFischer Scientific). For cell proliferation assay, after cells (5×10^3/well) were seeded into 96-well plates with culture media containing 10% FBS, the optical density of each well was measured at desired time interval, following the manufacturers protocol. The absorbance was measured by a Spectra Max 250 Plate Reader (Molecular Devices). Cell viability were calculated as percentage over control. Sphere formation assay. Sphere formation was induced by culturing cells (2×10^4/well) in DMEM/Ham's F12 50/50 Mix (Mediatech) supplemented with B-27 (Life Technologies), 20 ng/mL FGF-basic (Peprotech), 20 ng/mL EGF (Peprotech). Cell culture was performed in ultra-low attachment 6 well plates (Corning, Lowell, USA) for 10 days. The medium was replaced every other day. Sphere formation was evaluated using the inverted phase-contrast microscope. RNA extraction and quantitative reverse transcriptase polymerase chain reaction (Q-RT-PCR). Total RNA from cell lines was isolated using the RNeasy Plus Mini Kit (Qiagen, Germantown, USA), according to the manufacturer's protocol. […] The expression levels were quantified relative to β-actin using the 2−ΔΔCt method.

[3] = used clinically, or in clinical trials; cited from earlier work
[4] = target: YAP1 (Homo sapiens, UniProt P46937); details: cited from earlier work
Chain of YAP1 (P46937 whole entry, species assumed): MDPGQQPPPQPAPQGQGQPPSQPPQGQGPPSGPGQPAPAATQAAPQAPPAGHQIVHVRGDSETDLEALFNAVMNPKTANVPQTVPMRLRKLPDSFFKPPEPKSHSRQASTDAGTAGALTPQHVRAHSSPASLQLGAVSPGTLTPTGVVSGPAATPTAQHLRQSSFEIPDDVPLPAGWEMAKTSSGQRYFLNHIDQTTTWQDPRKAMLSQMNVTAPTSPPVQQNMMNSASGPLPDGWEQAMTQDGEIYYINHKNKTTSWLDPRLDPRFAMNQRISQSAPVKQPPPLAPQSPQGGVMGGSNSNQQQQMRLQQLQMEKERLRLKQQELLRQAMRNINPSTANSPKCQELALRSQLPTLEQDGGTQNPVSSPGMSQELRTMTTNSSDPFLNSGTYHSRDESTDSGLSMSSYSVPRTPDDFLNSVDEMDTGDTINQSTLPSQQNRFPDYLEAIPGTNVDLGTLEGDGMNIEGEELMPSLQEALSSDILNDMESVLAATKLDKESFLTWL

[5] = system: H1437 xenografts; experiment: H1437 xenograft treatment; assay type: in vivo, NSG mice; details: verteporfin 50 mg/kg i.p. three times a week; S3I-201 5 mg/kg i.p. every day
Excerpt: For therapeutic experiments, 4- to 5-week-old NOD/SCID/IL2Ry−/− (NSG) mice were obtained from the Johns Hopkins Medical Institute's (Baltimore, MD) animal care facility. We injected H1299 cells (1×106) and H1437 cells (1×106), which were suspended in the mixture as described above, subcutaneously into both flanks. For the patient-derived xenograft (PDX) models, 13 PDX blocks (CTG0162, 0178, 0502, 0848, 1309, 1351, 1358, 1361, 1762, 1885, 2017, 2481, and 2708) were obtained from Champion Oncology. All these PDXs were established from primary lung adenocarcinoma tumors. The tumor tissues were cut into 4×2 mm pieces and implanted in the subcutaneous spaces of both flanks. When tumor volumes reached to 200+50 mm3, mice were randomly assigned to six experimental groups [control, chemo (cisplatin+gemcitabine), chemo+verteporfin, chemo+S3I-201, “all” (cisplatin+gemcitabine+verteporfin+S3I-201), and verteporfin+S3I-201] at 5 mice per group. Cisplatin (Sigma-Aldrich; #P4394), gemcitabine (Medkoo; #100410), S3I-201 (MedKoo; #202541), and verteporfin (Sigma-Aldrich; #1711461) were used to treat the mice. Cisplatin (2.5 mg/kg) and gemcitabine (120 mg/kg) were administrated via intraperitoneal injection once a week (22). […] Each tumor volume was measured every 3 days. Therapeutic efficacy was evaluated from percentage change of the tumor volume compared with the tumor size before treatment.

[6] = system: H1299 and H1437 cells; experiment: Immunoblotting of YAP1, STAT3 and pSTAT3 after drug treatment; assay type: cell-based, human
Description: Western blotting. Cells were dissolved in RIPA buffer (Thermo Fisher Scientific) supplemented with proteinase inhibitor and phosphatase inhibitor cocktails (Roche, Mannheim, Germany). After total protein lysate was electrophoretically transferred onto PVDF membrane, the membrane was blocked with 5% skim milk in 0.05% TBS-Tween buffer and incubated at 4° C. overnight with a primary antibody specific to each protein. The membrane was then probed with an appropriate secondary antibody (Cell Signaling Technology, Danvers, USA). β-actin served as an endogenous control. The primary antibodies and dilution ratios were β-actin (Sigma-Aldrich; #A2228; 1:5000), NANOG (D73G4; Cell Signaling Technology; #4903; 1:1000), OCT4 (D705Z; Cell Signaling Technology; #75463; 1:500), SOX2 (EPR3131; Abcam, Cambridge, UK; #ab92494; 1:500), STAT3 (124H6; Cell Signaling Technology; #9139; 1:2000), pSTAT3 (D3A7; Cell Signaling Technology; #9145; 1:1000) and YAP1 (EP1674Y; Abcam, #ab52771; 1:2000).
To determine doses of these drugs that are effective for pathway inhibition, H1299 and H1437 cells were treated with verteporfin or S3I-201 for 72 hours.

SMILES: C=Cc1c(C)c2cc3nc(cc4[nH]c(cc5nc(cc1[nH]2)C(C)=C5CCC(=O)O)c(CCC(=O)OC)c4C)[C@@]1(C)C3=CC=C(C(=O)OC)[C@H]1C(=O)OC [verteporfin, 3-[(23S,24R)-14-ethenyl-5-(3-methoxy-3-oxopropyl)-22,23-bis(methoxycarbonyl)-4,10,15,24-tetramethyl-25,26,27,28-tetraazahexacyclo[16.6.1.13,6.18,11.113,16.019,24]octacosa-1,3,5,7,9,11(27),12,14,16,18(25),19,21-dodecaen-9-yl]propanoic acid]
- tumor growth ([1]; 50 mg/kg body weight i.p. every other day, immune competent mice): significant regression in tumor growth
- CCN1 and CCN2 expression (YAP1 downstream genes) ([1]; RT-qPCR): downregulated
- YAP1 expression in the tumor tissue ([1]; pharmacodynamic analysis): decrease YAP1 expression
- cancer stemness (cell proliferation, sphere formation, CSC markers) [2]: inhibit the development of cancer stemness
- adverse effects [3]: few severe adverse effects were reported
- binding to YAP1 and YAP1-TEAD2 interaction [4]: bind to YAP1 and change its conformation, thereby abrogating its interaction with TEAD2
- tumor growth [5]: did not significantly affect tumor growth
- STAT3 oligomerization (high molecular weight complexes) [6]: STAT3 oligomerization upon verteporfin treatment in a dose dependent manner; also recorded: high molecular weight complexes (regions surrounded by circles) were increased
- YAP1 and total STAT3 protein expression [6]: both YAP1 and total STAT3 expressions were suppressed
- YAP1 and total STAT3 protein expression ([6]; listed as Verteporfin): suppressed YAP1 and STAT3 expressions in H1299 and H1437 cells in a concentration dependent manner
